In patent publication US5248680A, “Zwitterionic compounds and their n-halo derivatives for use in the treatment of clinical conditions” (Bloomfield D.A., priority 1990, dated 1993):
Like-named read-outs stand apart in the source and are kept apart here.

Columns and labels:
catalase = test: Catalase activity of neutrophils after preincubation; assay type: cell-based, human; details: neutrophils preincubated with HEPES or taurine; data not shown
[1] = tested on: peripheral blood neutrophils; test: Chemiluminescence (reactive oxidant production) of peripheral blood neutrophils stimulated with calcium ionophore; assay type: cell-based; details: Homo sapiens, Neutrophil, 10 mM HEPES, mean ± S.E.M., read-out: Chemiluminesence production by neutrophils
Excerpt: Patients were selected with mild to moderate plaque-type psoriasis on the basis of clinical and histological evidence of disease. Normal volunteers were selected from laboratory personnel without personal or family history of inflammatory disease. Disease control groups included: a) patients with eczema, acne and dermatitis herpetiformis; and b) patients with Crohn's disease and ulcerative colitis. Blood samples from each subject were drawn into sodium heparin Vacutainers® (Vacutainer is a Trade Mark). The inflammatory cells (neutrophils) were isolated by dextran sedimentation and FICOLL-PAQUE®(FICOLL-PLAQUE is a Trade Mark) gradient centrifugation. Viability and purity were assessed by fluorescence microscopy, using ethidium bromide and acridine orange staining. […] Chemiluminescence activity of the peripheral blood neutrophils was tested using the method of Bloomfield, F. J. and Young, M. M. (Inflammation, (1982) 6, 257, hereby incorporated by reference), using calcium ionophore (2μ Molar) as stimulant instead of opsonized zymosan. Chemiluminescence is a measure of the production of reactive oxidants by neutrophils in response to an inflammatory stimulus. It was observed that there was significant reduction in chemiluminescence activity by neutrophils in the taurine-treated and HEPES-treated cells compared to control cells in all groups.

[2] = tested on: carrageenan induced paw oedema; test: Carrageenan-induced paw oedema in rats; assay type: in vivo, rat
Experimental: The studies were conducted on inbred Wistar strain albino rats (120-180 g) of either sex. The rats were housed in colony cages at an ambient temperature of 25°±2° C. and fed on standard pellet chow. The rats were anaesthetized using pentobarbitone sodium, their hind paws were marked and the volume measured. […] The control animals were injected with 10 μl of 0.9% saline solution. […] One hour following the carrageenan injection the hind paw volume was measured again. A 5 ml blood sample was taken from each animal into sodium heparin Vacutainers. Chemiluminescence activity was assayed in the PBMC isolated from each animal.
These studies were also conducted on inbred Wistar strain albino rats (120-180 g) of either sex. The rats were anaesthetized using pentobarbitone sodium prior to marking each hind paw and measuring paw volume. […] The control animals received 0.5 ml of 0.9% NaCl subcutaneously. 30 min after the injections were administered, paw oedema was induced using carrageenan. One hour following carrageenan administration the hind paw volume was measured. A 5 ml blood sample was taken from each animal into sodium heparin Vacutainers and used for chemiluminescence measurement.

myeloperoxidase [3] = test: Binding of zwitterion to myeloperoxidase (preliminary studies)
neutrophils [4] = test: Leukotriene B4 in supernatants of stimulated neutrophils; assay type: cell-based, human; details: 10 mM HEPES, mean ± S.E.M.; for activity at 10000 µM: Homo sapiens, Neutrophil, read-out: Leukotriene B4 production by neutrophils
Excerpt: (§1) Patients were selected with mild to moderate plaque-type psoriasis on the basis of clinical and histological evidence of disease. Normal volunteers were selected from laboratory personnel without personal or family history of inflammatory disease. Disease control groups included: a) patients with eczema, acne and dermatitis herpetiformis; and b) patients with Crohn's disease and ulcerative colitis.
(§2) Blood samples from each subject were drawn into sodium heparin Vacutainers® (Vacutainer is a Trade Mark). The inflammatory cells (neutrophils) were isolated by dextran sedimentation and FICOLL-PAQUE®(FICOLL-PLAQUE is a Trade Mark) gradient centrifugation. Viability and purity were assessed by fluorescence microscopy, using ethidium bromide and acridine orange staining.
(§3) It was therefore proposed to test the hypothesis that HEPES could inactivate leukotriene B4 by indirect stimulation of MPO leading to increased production of hypochlorous acid from cellular hydrogen peroxide.
For the methodology used in the in vitro studies hereinafter described reference should be made to McLoughlin, D. M. et al. Biochem. Soc. Trans. (1991) 19:73-78 hereby incorporated by reference, except where otherwise stated.

[5] = Skin penetration and percutaneous absorption of 14C-HEPES after a single topical dose; assay type: in vivo, human; details: for Mean urinary excretion of radioactivity: mean (S.D.), up to 120 hours
Experimental: The skin penetration and percutaneous absorption of radioactivity following topical administration of a single does of ^14 C-HEPES (approximately 100 mg 5% cream containing 70 uCi ^14 C) was investigated in two groups of six healthy male volunteers. The dose was applied to intact skin in one group and to skin stripped 10 times with scotch tape in the second group. The unabsorbed material was removed after 12 hours and the area of application was stripped 10 times in order to determine skin penetration. Blood, urine and faeces samples were collected up to 120 hours after dose application for assessment of total radioactivity.

neutrophils [6] = test: Hypochlorous acid production by neutrophils; assay type: cell-based; details: Homo sapiens, Neutrophil, 10 mM HEPES, mean ± S.E.M.
Excerpt: as §1, §2

myeloperoxidase [7] = test: Myeloperoxidase activity of neutrophils after preincubation with zwitterion; assay type: cell-based, human; details: 10 mM HEPES, mean ± S.E.M.
Excerpt: as §1, §2

neutrophils [8] = test: Degranulation of lysosomal enzymes by neutrophils stimulated with calcium ionophore; assay type: cell-based, human; details: for activity at 10000 µM: Homo sapiens, Neutrophil, 10 mM HEPES, mean
Excerpt: as §1, §2
Stimulation of the inflammatory process in neutrophils, not only activates the respiratory burst, but as a consequence, is also associated with release of lysosomal enzymes from the cells in a process called degranulation. Degranulation of lysosomal enzymes was stimulated in neutrophils from each group of subjects, using calcium ionophore as inflammatory stimulant.

monocytes = test: Leukotriene B4 in stimulated monocytes; assay type: cell-based, human; details: preincubation with 10 mM HEPES or 40 mM taurine; data not shown
Excerpt: as §3

[9] = Normal + iodide (1 mM potassium iodide)

Structure (SMILES): O=S(=O)(O)CCN1CCN(CCO)CC1 [HEPES, N-2-hydroxyethylpiperazine-N'-2-ethanesulphonic acid]
- effect on catalase activity (catalase): no effect on catalase activity
- activity at 10000 µM ([1]; Normal): 28.8 ± 4.24%
- activity at 10000 µM ([1]; Psoriasis): 26.9 ± 3.25%
- activity at 10000 µM ([1]; disease controls (a) eczema, acne, dermatitis herpetiformis): 28.8 ± 3.84%
- activity at 10000 µM ([1]; disease controls (b) Crohn's disease, ulcerative colitis): 25.4 ± 6.4%
- percentage increase in paw volume ([2]; I.P. 500 μg HEPES, 1 h after carrageenan, mean ± S.E.M.): 23 ± 4 percentage increase in paw volume
- reduction in paw oedema ([2]; intraperitoneal 500 μg HEPES, versus control): 50%
- binding to the enzyme (MPO) (myeloperoxidase [3]): did not bind to the enzyme
- Leukotriene B4 production by neutrophils (neutrophils [4]; [9]): no measurable leukotriene B4
- activity at 10000 µM (neutrophils [4]; [9]): 0%
- activity at 10000 µM (neutrophils [4]; Normal): 55.8 ± 8.9%
- activity at 10000 µM (neutrophils [4]; Psoriasis): 22.4 ± 6.62%
- activity at 10000 µM (neutrophils [4]; disease controls (a)): 24.9 ± 8.99%
- activity at 10000 µM (neutrophils [4]; disease controls (b)): 16.7 ± 6.42%
- tolerability of single topical dose ([5]; intact and stripped skin groups): well tolerated
- Mean urinary excretion of radioactivity ([5]; intact skin group): 0.07+0.08% of the applied dose
- radioactivity in 48-72 hour faecal sample ([5]; one subject of the stripped skin group): 0.11 % of the applied dose
- abnormalities in biochemistry, haematology and urinalysis screens ([5]; single topical dose): not considered to be related
- radioactivity in plasma or faecal samples ([5]; single topical dose approx. 100 mg 5% cream, intact and stripped skin groups, samples up to 120 hours): No radioactivity was detected
- Mean urinary excretion of radioactivity ([5]; stripped skin group): 0.20±0.22% of the applied dose
- activity at 10000 µM (neutrophils [6]; Normal): 211 ± 12.5%
- activity at 10000 µM (neutrophils [6]; Psoriasis): 193 ± 10.7%
- activity at 10000 µM (neutrophils [6]; disease controls (a)): 152 ± 8.3%
- Myeloperoxidase activity of neutrophils (myeloperoxidase [7]; Normal): 228 ± 25.4 percentage activity of control
- Myeloperoxidase activity of neutrophils (myeloperoxidase [7]; Psoriasis): 247 ± 30.1 percentage activity of control
- Myeloperoxidase activity of neutrophils (myeloperoxidase [7]; disease controls (a)): 198 ± 17.1 percentage activity of control
- Myeloperoxidase activity of neutrophils (myeloperoxidase [7]; disease controls (b)): 211 ± 56.4 percentage activity of control
- activity at 10000 µM (neutrophils [8]; Normal): 104%
- activity at 10000 µM (neutrophils [8]; Psoriasis): 104%
- activity at 10000 µM (neutrophils [8]; disease controls (a)): 87.2%
- degranulation by preincubated neutrophils compared to control cells (neutrophils [8]; result in words, taurine data not shown): no difference in degranulation
- reduction of leukotriene B4 in monocytes (monocytes): also demonstrated in monocytes
